Experimental findings from patent publication US8957108B2, “Use of 5,6-dimethylxanthenone-4-acetic acid as an antiviral agent” (University of Maryland, Baltimore, priority 2006, dated 2015) are described below.

Each structure is given as a SMILES string. Values after ≈ are worked out from the molar mass of the structure shown.

One assay relates to IRF-3. The experiment in a line: Native-PAGE and Western blotting for IRF-3 dimers. As to conditions: peritoneal macrophages, DMXAA- vs. LPS-stimulated. The format is cell-based, mouse. Here is the method:
Rabbit anti-mouse IκBα phospho-specific Ab (pAb) was purchased from Santa Cruz Biotechnology, Inc. (Santa Cruz, Calif.). Rabbit anti-mouse MAPK pAb and rabbit anti-human phospho-IRF-3 pAb antibodies were purchased from Cell Signaling (Danvers, Mass.). Rabbit anti-mouse IRF-3 pAb was purchased from Zymed (South San Francisco, Calif.). Native-PAGE for the detection of IRF-3 dimers was carried out as described in Iwamura, T. et al. (2001) “Induction Of IRF-3/-7 Kinase And NF-kappaB in Response To Double-Stranded RNA And Virus Infection: Common And Unique Pathways,” Genes and Cells 6:375-388. Briefly, thioglycollate-elicited peritoneal macrophages were lysed following stimulation with either LPS or DMXAA as indicated. […] Membranes were probed with a 1:250 dilution of rabbit anti-mouse IRF-3 for 1 h at room temperature. Goat anti-rabbit IgG-HRP (Cell Signaling Technologies, Danvers, Mass.) at a 1:2000 dilution was used as the secondary Ab. Blots were developed with ECL Plus (Amersham Biosciences, Piscataway, N.J.).
Background: Immunoblotting shows a protein as a band on a membrane.

Another assay concerns Ft LVS. The settings on record: DMXAA alone (100 μg/ml), over a 24 hr period.
The test system of the next assay is Influenza/A/Wuhan. The experiment in a line: Assay of indirect inhibition of viral infection (influenza, MDCK cells, CPE). The settings on record: CPE of influenza virus on MDCK cells.
Assay [1] has as its system IκBα, NF-κB, p38, ERK, and JNK MAPK. The experiment in a line: IκBα, NF-κB and MAPK activation in macrophages. The format is cell-based, mouse.
Assay [2] relates to vesicular stomatitis virus (VSV). Format: cell-based, strain Indiana. The settings on record: RAW 264.7 macrophages pretreated 6 h with 100 μg/ml; highest exposure MOI=10.0.

Consider `Cc1ccc2c(=O)c3cccc(CC(=O)O)c3oc2c1C` [DMXAA, 5,6-dimethylxanthenone-4-acetic acid], for which the “activated IRF-3 dimers” value in the assay on IRF-3 is “much more abundant and longer-lived”. Besides, the “effect on Ft LVS replication” value in the assay with Ft LVS is “no effect”. Moreover, the “IC50 indirect antiviral activity” value in the assay with Influenza/A/Wuhan worked out at 2.0 µg/mL (≈ 7.08 µM). In addition, the “activation of p38, ERK, and JNK MAPK” value in assay [1] (C57BL/6 macrophages) was “no discernible effect”. In assay [1] (RAW 264.7 macrophage-like cell line), the “NF-κB translocation / binding activity” value was “little effect”. For the same compound, the “level of IκBα protein” value in assay [1] (primary macrophages) is listed as “little effect”. For the same compound, the “VSV infection and CPE” value in assay [2] was “completely prevents VSV infection and CPE”.
